Values of other authors in US5281578A, “Gallium compounds” (Johnson Matthey Public Limited Company, priority 1992, dated 1994).
Like-named read-outs stand apart in the source and are kept apart here.

What was measured:
[1] = test system: renal toxicity
[2] = pH 4.5-7

Row | Compound | renal toxicity ([1]; iv bolus) | renal toxicity ([1]; seven day continuous iv infusion, cancer-associated hypercalcemia) | absorption from the gastro-intestinal tract [2]
1 | [Ga] [gallium] | dose-limiting | no renal toxicity | 
2 | [Ga+3] [gallium(III) aquo-ion] |  |  | very poorly absorbed
